Measurements as given in PubChem BioAssay (NCI).
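Protocol summary: plate cells (96-well), add compound at 5 concentrations, incubate 48 h, interpolate endpoints linearly. At the GI50, growth is halved. TGI denotes the concentration required for complete inhibition of growth.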

Assays:
Test in all cases: NCI anticancer screen, dose series, 48 h
OVCAR-3 ovarian = system: OVCAR-3 ovarian
CCRF-CEM leukemia = system: CCRF-CEM leukemia
MOLT-4 leukemia = system: MOLT-4 leukemia
U251 CNS = system: U251 CNS
DU-145 prostate = system: DU-145 prostate
HT29 colon = system: HT29 colon
TK-10 renal = system: TK-10 renal
RPMI-8226 leukemia = system: RPMI-8226 leukemia
MDA-MB-435 = system: MDA-MB-435
OVCAR-8 ovarian = system: OVCAR-8 ovarian
SK-MEL-28 melanoma = system: SK-MEL-28 melanoma
786-0 renal = system: 786-0 renal
BT-549 breast = system: BT-549 breast
HOP-62 NSCLC = system: HOP-62 NSCLC
SNB-19 CNS = system: SNB-19 CNS
UACC-62 melanoma = system: UACC-62 melanoma
SF-539 CNS = system: SF-539 CNS
A498 renal = system: A498 renal
SW-620 colon = system: SW-620 colon
ACHN renal = system: ACHN renal
NCI-H522 lung = system: NCI-H522 lung
CAKI-1 renal = system: CAKI-1 renal
SF-268 CNS = system: SF-268 CNS
A549 NSCLC = system: A549 NSCLC
EKVX NSCLC = system: EKVX NSCLC
HCT-15 colon = system: HCT-15 colon
T-47D breast = system: T-47D breast
HL-60(TB) leukemia = system: HL-60(TB) leukemia
K-562 leukemia = system: K-562 leukemia
SK-MEL-2 melanoma = system: SK-MEL-2 melanoma
SK-MEL-5 melanoma = system: SK-MEL-5 melanoma
UACC-257 melanoma = system: UACC-257 melanoma
MALME-3M melanoma = system: MALME-3M melanoma
NCI-H460 lung = system: NCI-H460 lung
NCI-H226 lung = system: NCI-H226 lung
COLO 205 colon = system: COLO 205 colon
HCT-116 colon = system: HCT-116 colon
SK-OV-3 ovarian = system: SK-OV-3 ovarian
KM12 colon = system: KM12 colon
MDA-MB-231 breast = system: MDA-MB-231 breast
IGROV1 ovarian = system: IGROV1 ovarian
PC-3 prostate = system: PC-3 prostate
M14 melanoma = system: M14 melanoma
HS 578T breast = system: HS 578T breast
SR leukemia = system: SR leukemia
OVCAR-4 ovarian = system: OVCAR-4 ovarian
RXF 393 renal = system: RXF 393 renal
NCI/ADR-RES ovarian = system: NCI/ADR-RES ovarian
NCI-H23 lung = system: NCI-H23 lung
SF-295 CNS = system: SF-295 CNS
SN12C renal = system: SN12C renal
UO-31 renal = system: UO-31 renal
HOP-92 NSCLC = system: HOP-92 NSCLC
HCC-2998 colon = system: HCC-2998 colon
MCF7 breast = system: MCF7 breast
SNB-75 CNS = system: SNB-75 CNS
OVCAR-5 ovarian = system: OVCAR-5 ovarian
LOX IMVI melanoma = system: LOX IMVI melanoma

## CCOC(=O)c1ccc2c(c1)c1c(C)c3ccncc3c(C)c1n2C
OVCAR-3 ovarian
  GI50: 692 nM
  TGI: 2620 nM
CCRF-CEM leukemia
  GI50: 851 nM
  TGI: 8.64 µM
MOLT-4 leukemia
  GI50: 393 nM
  TGI: 3.19 µM
U251 CNS
  GI50: 468 nM
  TGI: 1980 nM
DU-145 prostate
  GI50: 546 nM
  TGI: 2330 nM
HT29 colon
  GI50: 362 nM
  TGI: 1780 nM
TK-10 renal
  GI50: 1150 nM
  TGI: 3.05 µM
RPMI-8226 leukemia
  GI50: 440 nM
  TGI: 2440 nM
MDA-MB-435
  GI50: 649 nM
  TGI: 1960 nM
OVCAR-8 ovarian
  GI50: 436 nM
  TGI: 3.25 µM
SK-MEL-28 melanoma
  GI50: 539 nM
  TGI: 1900 nM
786-0 renal
  GI50: 642 nM
  TGI: 2030 nM
BT-549 breast
  GI50: 1270 nM
  TGI: 3.7 µM
HOP-62 NSCLC
  GI50: 408 nM
  TGI: 2160 nM
SNB-19 CNS
  GI50: 441 nM
  TGI: 2320 nM
UACC-62 melanoma
  GI50: 378 nM
  TGI: 1730 nM
SF-539 CNS
  GI50: 467 nM
  TGI: 1920 nM
A498 renal
  GI50: 664 nM
  TGI: 2050 nM
SW-620 colon
  GI50: 322 nM
  TGI: 1800 nM
ACHN renal
  GI50: 265 nM
  TGI: 1320 nM
NCI-H522 lung
  GI50: 564 nM
  TGI: 2550 nM
CAKI-1 renal
  GI50: 287 nM
  TGI: 1490 nM
SF-268 CNS
  GI50: 846 nM
  TGI: 3.48 µM
A549 NSCLC
  GI50: 382 nM
  TGI: 1880 nM
EKVX NSCLC
  GI50: 384 nM
  TGI: 2370 nM
HCT-15 colon
  GI50: 381 nM
  TGI: 1650 nM
T-47D breast
  GI50: 855 nM
  TGI: 3.5 µM
HL-60(TB) leukemia
  GI50: 1160 nM
  TGI: 6.08 µM
K-562 leukemia
  GI50: 413 nM
  TGI: 2530 nM
SK-MEL-2 melanoma
  GI50: 897 nM
  TGI: 2580 nM
SK-MEL-5 melanoma
  GI50: 384 nM
  TGI: 1510 nM
UACC-257 melanoma
  GI50: 472 nM
  TGI: 2600 nM
MALME-3M melanoma
  GI50: 375 nM
  TGI: 1680 nM
NCI-H460 lung
  GI50: 680 nM
  TGI: 3.46 µM
NCI-H226 lung
  GI50: 260 nM
  TGI: 1450 nM
COLO 205 colon
  GI50: 350 nM
  TGI: 1820 nM
HCT-116 colon
  GI50: 287 nM
  TGI: 1380 nM
SK-OV-3 ovarian
  GI50: 721 nM
  TGI: 2990 nM
KM12 colon
  GI50: 517 nM
  TGI: 2580 nM
MDA-MB-231 breast
  GI50: 622 nM
  TGI: 2400 nM
IGROV1 ovarian
  GI50: 211 nM
  TGI: 1460 nM
PC-3 prostate
  GI50: 486 nM
  TGI: 2150 nM
M14 melanoma
  GI50: 505 nM
  TGI: 2080 nM
HS 578T breast
  GI50: 543 nM
  TGI: 3.24 µM
SR leukemia
  GI50: 269 nM
  TGI: 3.95 µM
OVCAR-4 ovarian
  GI50: 745 nM
  TGI: 2550 nM
RXF 393 renal
  GI50: 349 nM
  TGI: 1670 nM
NCI/ADR-RES ovarian
  GI50: 470 nM
  TGI: 2900 nM
NCI-H23 lung
  GI50: 376 nM
  TGI: 1980 nM
SF-295 CNS
  GI50: 516 nM
  TGI: 4.63 µM
SN12C renal
  GI50: 457 nM
  TGI: 2310 nM
UO-31 renal
  GI50: 165 nM
  TGI: 1400 nM
HOP-92 NSCLC
  GI50: 303 nM
  TGI: 2360 nM
HCC-2998 colon
  GI50: 1090 nM
  TGI: 2950 nM
MCF7 breast
  GI50: 346 nM
  TGI: 1750 nM
SNB-75 CNS
  GI50: 380 nM
  TGI: 1950 nM
OVCAR-5 ovarian
  GI50: 796 nM
  TGI: 2840 nM
LOX IMVI melanoma
  GI50: 349 nM
  TGI: 1620 nM
